16 compounds from US20100273748A1, “ANTIMICROBIAL THERAPY” (priority 2006, published 2010) can be followed below.

Data set [1] has as its system CD14. The data set can be described thus: qPCR of CD14 mRNA in cultured keratinocytes. The class given is cell-based, human. The note with it: for CD14 mRNA expression: 24 hours. The procedure:
(§1) Cell culture and stimuli. Human keratinocytes were grown in serum-free EpiLife® cell culture media (Cascade Biologics; Portland, Oreg.) containing 0.06 mM Ca2+ and 1× EpiLife® defined growth supplement (EDGS) at 37° C. under standard tissue culture conditions. Stock cultures were maintained for up to five passages in this media with the addition of 50 U/mL penicillin and 50 μg/mL streptomycin. HaCaT keratinocytes were cultured in DMEM (Sigma, St. Louis, Mo.) with 10% FCS. Cells at 50-70% confluence were stimulated in fresh medium after preincubation with 1,25(OH)2 vitamin D3 (1,25D3; 0.1-100 nM, 4-24 h; Sigma). Alternatively, NHEK were stimulated in the presence of 1,25D3 (0.1-100 nM). Stimuli included TLR2,6 ligands Malp-2 (0.001-0.5 μg/ml; Alexis Biochemicals, Carlsbad, Calif.), FSL-1 (1-2 μg/ml, Invivogen, San Diego, Calif.) and zymosan (50 μg/ml; Invivogen), as well as flagellin (50 ng/ml; Alexis), LPS (1 μg/ml; Sigma), lipoteichoic acid (LTA; 10 μg/ml; Sigma), 19 kDA lipopeptide (10 μg/ml, a kind gift from S. Krutzik, Division of Dermatology, UCLA), CpG DNA (10 μg/ml; Sigma), Ca2+ (1.7 mM), LPS (1 μg/ml; Sigma), TNFα (20 ng/ml; Chemicon Temecula, Calif.) and TGFβ1 (0.1-1 μg/ml; R&D Systems, Minneapolis, Minn.). A TLR2 blocking antibody (αTLR2; clone TL2.1, 5 μg/ml, eBioscience, San Diego, Calif.) was utilized to investigate the role of TLR2 signaling. Furthermore, keratinocytes were pretreated with a vitamin D receptor antagonist (VDR-antagonist ZK159222 Schering AG; 10^-7M) or the CYP inhibitor itraconazole (ITRA; 10^-7M) before stimulation with TGFβ in the presence of 25OH vitamin D3 (25D3, 10 nM, Sigma).
(§2) Real-time RT-PCR (qPCR). RNA was extracted from cells, epidermal constructs or tissue using Trizol® and 1 μg RNA was reverse transcribed using iScript® (BioRad, Hercules, Calif.). Expression of cathelicidin and GAPDH was analysed by real-time RT-PCR. Predeveloped Taqman® assay probes (ABI, Foster City, Calif.) were used for the analyses of the expression of CYP24A1 (24-hydroxylase), CYP27B1 (1α-hydroxylase), CD14, CD36, TLR1, TLR2, TLR4, TLR6 and murine CD14. All analyses were performed in triplicate from 2-5 independent experiments in an ABI Prism® 7000 Sequence Detection System. Fold induction relative to the vehicle treated control in in vitro experiments was calculated using the comparative Ct method, where ΔΔCt is ΔCt(stimulant)-ΔCt(vehicle), ΔCt is Ct(gene)-Ct(GAPDH) and Ct is the cycle at which an arbitrary detection threshold is crossed. For quantification of transcript abundance in tissue samples target gene expression was normalized to GAPDH and compared to non-treated or non-injured skin.

Data set [2] concerns cathelicidin. The data set can be described thus: qPCR of cathelicidin mRNA in cultured keratinocytes. The data set is classed as cell-based, human. How it is done: as §1, §2
Data set [3] deals with TLR2. Kind of data set: qPCR of TLR2 mRNA in cultured keratinocytes. The conditions noted are these: for TLR2 mRNA expression: 24 hours. The data set is classed as cell-based, human. The procedure: as §1, §2
The test system of data set [4] is Staphylococcus aureus mprF. The data set can be described thus: Radial diffusion assay. The class given is cell-based. The conditions noted are these: LL-37 incubated in sweat, 37° C., 6 hr. The procedure:
Sweat collection and processing. Sweat was collected on paper tissues (Kimwipes, Kimberly-Clark, Ga.) from healthy volunteers after exercise. After collection, 20 ml of sweat was centrifuged at 2000 g for 15 min. at 4° C., filtered through a […] (Acrodisc syringe filter, 0.2 mm, low protein binding, Fisher scientific, Tustin, Calif.), and frozen at −80° C. For some experiments sweat was lyophilized to dryness, then suspended in 400 μl of distilled water (DW: cell culture grade, endotoxin free, GibcoBRL, Grand island, NY). For analysis of LL37 processing by sweat, 1.6 nmol of LL-37 synthetic peptide was incubated in 50 ml of sweat for 0, 1, 6, 24 hrs at 37° C. or 4° C. In some experiments proteinase inhibitors including; mixed protease inhibitor cocktail (1tab/10 ml, Roche, Indianapolis, Ind.), […] Bestatin, 10 mg/ml E-64, 10 mg/ml Aprotinin, (Sigma, St Louis, Mo.); 100 mM AEBSF, 100 mM Neutrophil elastase inhibitor (NEI) or 100 mM leukocyte elastase inhibitor (LEI) (Calbiochem, San Diego, Calif.) were added during incubation. After incubation, 2 ml was assayed by radial diffusion assay to determine antibacterial activity. For analysis by HPLC 32 nmoles LL-37 was incubated in 100u1. To control for potential contamination from paper tissues, parallel processing was done on tissues soaked in phosphate-buffered saline (PBS:137 mM NaCl, 2.7 mM KCL, 4.3 mM Na2HPO4-H2O, 1.4 mM KH2PO4, pH 7.4). No antimicrobial activity was detectable in these preparations. Protein concentrations were evaluated by BCA assay (protein assay reagent, Pierce, Rockford, Ill.) or Bradford protein assay (Bio-Rad, Hercules, Calif.) according to manufacture's instructions. Human tissue and blood collection was approved by the UCSD Human Research Protection Program.
Antimicrobial assays. For screening of antimicrobial activity of HPLC fractions, radial diffusion assay was used. Lyophilized HPLC fractions were dissolved in DW (GibcoBRL, Grand Island, N.Y.), and tested against Staphylococcus aureus mprF. Thin plates (1 mm) of 1% agarose in 0.5% tryptone containing approximately 1×10^6 cells/ml of S. aureus mprF were used. 1 mm wells were punched in the plates and […] of samples dissolved in tissue culture grade sterile water were loaded in each well.

In data set [5] the test system is acetylated histone H4. Kind of data set: Histone H4 acetylation in keratinocytes (immunofluorescence, Western blot). The data set is classed as cell-based, human. The note with it: NHEK stimulated with butyrate or TLR ligand. How it is done:
Panel a; Immunofluorescence staining of acetylated histone H4 protein in NHEK treated with HDACi in the presence or absence of 1,25D3. […] Panel b: Western blot of acetylated histone 4 from keratinocytes treated with the HDACi butyrate or TLR agonists. […] Bar=30 μM.
The abundance of acetylated histone was directly measured to confirm the inhibitory effects of butyrate and TSA on HDACs. […] To determine if changes in histone acetylation occur upon stimulation of keratinocytes with TLR ligands NHEK were stimulated with different TLR ligands and histone acetylation was assessed.
In general terms: A western blot detects proteins with antibodies after separation by electrophoresis.

Data set [6] has as its system Staphylococcus aureus. Kind of data set: Bacterial growth inhibition (turbidity OD600) with or without carbonate. The class given is cell-based. The conditions noted are these: for increase of LL-37 antimicrobial activity by carbonate containing compound: medium with 32 μM LL-37, pH 7.4, KHCO3 and Na2CO3 at 50 mM.
The test system of data set [7] is wild-type S. aureus (clinical isolate). The data set can be described thus: Radial diffusion assay. The class given is cell-based.
Data set [8] deals with enteroinvasive E. coli 029. Kind of data set: Radial diffusion assay. The data set is classed as cell-based.
For data set [9], the system named is C. albicans. The data set can be described thus: Liquid assay, minimum fungicide concentration. The class given is cell-based, Candida albicans.
Method: Action against the C. albicans was determined in Dixon medium (0.6% Peptone, 4% Malt Extract, 1% Glucose, 0.1% Ox Bile, 1% Tween-80) in sterile 96-well microtiter plates (Corning Inc., Corning, N.Y.) at a final volume of 50 ml. […] Microtiter plates were incubated at 37° C. for 24 h with peptides, then plated on Dixon agar to determine the MFC (minimum fungicide concentration).
Setting [10] is: 25D3 (10 nM) or TGF (1 μg/ml) alone.
The mark [11] stands for this setting: 25D3 (10 nM) together with TGF (1 μg/ml).
The mark [12] stands for this setting: pretreatment with antagonist 10^−7M.
Setting [13] is: radial diffusion and solution assay.

With `C=C1CC[C@H](O)C/C1=C/C=C1\CCC[C@]2(C)[C@@H]([C@H](C)CCCC(C)(C)O)CC[C@@H]12` [25D3, 25OH vitamin D3], the “CD14 mRNA expression” value is “Neither 25D3 nor TGF alone affected expression” in data set [1] (setting [10]) and “simultaneous addition induced” in [1] (setting [11]). Moreover, the “cathelicidin mRNA expression” value in data set [2] (25D3 (10 nM) or TGF (1 μg/ml) alone, 24 hours) is “Neither 25D3 nor TGF alone affected expression”; in data set [2] (25D3 (10 nM) together with TGF (1 μg/ml), 24 hours) it was “simultaneous addition induced”. In addition, the “TLR2 mRNA expression” value in [3] (setting [10]) was “Neither 25D3 nor TGF alone affected expression”; in data set [3] (setting [11]), “simultaneous addition induced”.
As for `NCCc1ccc(S(=O)(=O)F)cc1` [AEBSF], the “blocking of the gain in LL-37 antimicrobial activity in sweat by protease inhibitor” value in data set [4] was “most effective in blocking the increase in antimicrobial activity”.
Turning to `CCCc1nc2c(N)nc3ccccc3c2s1` [CL075], the “acetylation of histone H4” value in data set [5] is “did not change histone acetylation”.
Take `CC(C)Cn1cnc2c(N)nc3ccccc3c21` [Imiquimod]: in data set [5], the “acetylation of histone H4” value was “did not change histone acetylation”.
In the case of `O=C([O-])O.[K+]` [KHCO3], the “increase of LL-37 antimicrobial activity by carbonate containing compound” value in data set [6] is reported as “also increased antimicrobial activity”.
Take `O=C([O-])[O-].[Na+].[Na+]` [Na2CO3]: the “increase of LL-37 antimicrobial activity by carbonate containing compound” value in data set [6] is “also increased antimicrobial activity”.
Turning to `CC(/C=C/C(=O)NO)=C\[C@@H](C)C(=O)c1ccc(N(C)C)cc1` [Trichostatin A], the “effect of HDAC inhibitor on 1,25D3 induced cathelicidin” value in data set [2] (TSA 200 ng ml^−1 with 1,25D3 (10^−8M)) was “significantly increased 1,25D3 induced cathelicidin”.
Regarding `C=C1/C(=C\C=C2/CCC[C@]3(C)[C@@H]([C@H](C)/C=C/[C@@H](O)C4(C(=O)OCCCC)CC4)CC[C@@H]23)C[C@@H](O)C[C@@H]1O` [VAZ], the “block of CD14 induction by TGF plus 25D3” value in [1] (setting [12]) was “blocked this effect”. The “effect of VDR antagonist on cathelicidin induction by HDAC inhibitor plus 1,25D3” value in data set [2] (ZK159222 10^−7 M, BUT 2 mM, 1,25D3 10^−8 M, 24 hours) was “decreased the capacity of the HDAC inhibitor to increase cathelicidin”. Also, the “block of cathelicidin induction by TGF plus 25D3” value in data set [2] (setting [12]) is “blocked this effect”. For the same compound, the “block of TLR2 induction by TGF plus 25D3” value in [3] (setting [12]) is recorded as “blocked this effect”.
As for Aprotinin, the “blocking of the gain in LL-37 antimicrobial activity in sweat by protease inhibitor” value in data set [4] was “most effective in blocking the increase in antimicrobial activity”.
FSL-1: the “cathelicidin induction by TLR2,6 ligand” value in data set [2] (in the presence of 1,25D3 (100 nM)) was “capable of inducing cathelicidin”.
Regarding Human Beta Defensin-2, the “enhancement of peptide activity by 50 mM NaHCO3 (EF)” value in [6] (20% TSB, 10% FBS, 1 mM NaH2PO4, 150 mM NaCl, pH 7.4) is given as “enhanced”.
With “KRIVQRIKDFLRNLVPRTES [KR-20, 20 amino acid cathelicidin derivative generated from LL-37 in sweat]”, in [7], the “Radial Diffusion Assay, minimal inhibitory concentration (MIC), S. aureus (wt)” value is 4 μm. Also, in [8], the “Radial Diffusion Assay, minimal inhibitory concentration (MIC), E. coli (O29))” value worked out at 4 μm. For the same compound, the “fungicidal activity against Candida albicans compared to LL-37” value in data set [9] is on record as “increased fungicidal activity”.
As to “PR-39: porcine cathelicidin antimicrobial peptide (RRRPRPPYLPRPRPPPFFPPRLPPRIPPGFPPRFPPRFP; UniProt P80054 131-169, looked up)”, the “change of minimal inhibitory concentration (MIC) by NaHCO3” value in [6] (20% TSB, 1 mM NaH2PO4, with or without 50 mM NaHCO3, pH 7.4) is on record as “greatly reduced”.
Regarding Poly(I:C), in data set [5], the “acetylation of histone H4” value is on record as “did not change histone acetylation”.
As to “RKSKEKIGKEFKRIVQRIKDFLRNLVPRTES [RK-31, cathelicidin peptide generated from LL-37 in sweat]”, in [7] (setting [13]), the “action against wild-type S. aureus compared to LL-37” value is on record as “greatly increased action”. Also, the “action against E. coli compared to LL-37” value in [8] (setting [13]) is recorded as “greatly increased action”. The “fungicidal activity against Candida albicans compared to LL-37” value in [9] is listed as “increased fungicidal activity”.
Consider flagellin, for which, in data set [2] (keratinocytes pretreated with 1,25D3 0.1 nM 24 hours, then TLR ligand 24 hours), the “cathelicidin expression in response to TLR ligand” value is listed as “not to other TLR agonists”. The “acetylation of histone H4” value in [5] is on record as “did not change histone acetylation”.
